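Five concentrations, 48 hours, 96-well plates. Here, GI50 denotes the concentration required for 50% inhibition of growth. TGI is the concentration that stops growth completely.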
Legend:
Assay in all cases: growth of human tumour cells (NCI), 48 h
[1] = system: UACC-62 melanoma
[2] = system: HCT-116 colon
[3] = system: 786-0 renal
[4] = system: SN12C renal
[5] = system: SK-MEL-28 melanoma
[6] = system: NCI-H460 lung
[7] = system: HCT-15 colon
[8] = system: SK-MEL-2 melanoma
[9] = system: HCC-2998 colon
[10] = system: UO-31 renal

## COc1cc2nc(-c3ccc(Cl)cc3)cc(OCCCN3CCCCC3)c2cc1OC
[1]
  GI50: 1.94 µM
  TGI: 4.42 µM
[2]
  GI50: 0.828 µM
  TGI: > 100 µM
[3]
  GI50: 2.62 µM
  TGI: > 100 µM
[4]
  GI50: 0.946 µM
  TGI: > 100 µM
[5]
  GI50: 1.45 µM
  TGI: 3.07 µM
[6]
  GI50: 0.842 µM
  TGI: > 100 µM
[7]
  GI50: 0.604 µM
  TGI: > 100 µM

## Cc1cc([N+](=O)[O-])ccc1Nc1cccc(Cl)c1C
[8]
  TGI: 29 µM
[9]
  TGI: 32.6 µM
[1]
  TGI: 27.2 µM
[10]
  TGI: 24.4 µM
[2]
  TGI: 29.6 µM
[3]
  TGI: 31.9 µM
[4]
  TGI: 32.1 µM
[5]
  TGI: 32.1 µM
[7]
  TGI: 35 µM

## [N-]=[N+]=NC12CC3C4CC5CC3C(C1)C(C5)C4C2
[8]
  TGI: > 100 µM
[9]
  TGI: > 100 µM
[1]
  TGI: > 100 µM
[10]
  TGI: > 100 µM
[2]
  TGI: > 100 µM
[3]
  TGI: > 100 µM
[4]
  TGI: > 100 µM
[5]
  TGI: > 100 µM
[6]
  TGI: > 100 µM

## O=[N+]([O-])c1ccc(C2=Nn3cnnc3SC2)o1
[8]
  TGI: 50.7 µM
[9]
  TGI: 29.2 µM
[10]
  TGI: 36.5 µM
[2]
  TGI: 30.8 µM
[3]
  TGI: 32.1 µM
[4]
  TGI: 30.1 µM
[5]
  TGI: 31.1 µM
[6]
  TGI: 26.3 µM
[7]
  TGI: 27.2 µM

## CCOC(=O)CCCn1c(SC)nc2[nH]cc(-c3ccccc3)c2c1=O
[8]
  GI50: 21.6 µM
  TGI: 45.8 µM
[9]
  GI50: > 100 µM
  TGI: > 100 µM
[1]
  GI50: 11.2 µM
  TGI: 25.1 µM
[10]
  GI50: 19.9 µM
  TGI: 57.9 µM
[2]
  GI50: 14.1 µM
  TGI: 34 µM
[3]
  GI50: 6.81 µM
  TGI: 44.8 µM
[4]
  GI50: 17 µM
  TGI: 49.9 µM
[5]
  GI50: 17.6 µM
  TGI: 37.1 µM
[6]
  GI50: 33.6 µM
  TGI: > 100 µM
[7]
  GI50: 27.1 µM
  TGI: > 100 µM

## C=CCCCCC/C=C\[C@H](O)C#CC#C/C=C/CO
[8]
  GI50: 83.3 µM
  TGI: > 100 µM
[9]
  GI50: 12.5 µM
  TGI: 25.1 µM
[1]
  GI50: 26.2 µM
  TGI: > 100 µM
[10]
  GI50: 61.9 µM
  TGI: > 100 µM
[2]
  GI50: 22.6 µM
  TGI: 48.6 µM
[3]
  GI50: 29.3 µM
  TGI: 82.2 µM
[4]
  GI50: 15 µM
  TGI: 35.1 µM
[5]
  GI50: > 100 µM
  TGI: > 100 µM
[6]
  GI50: > 100 µM
  TGI: > 100 µM
[7]
  GI50: 30 µM
  TGI: > 100 µM

## COc1cc(N(CCC#N)CCC#N)ccc1/C(N=Nc1ccc([N+](=O)[O-])cc1)=N/NC(=O)c1cc(Br)ccc1O
[8]
  GI50: 44.2 µg/mL
  TGI: > 150 µg/mL
[9]
  GI50: 40.9 µg/mL
  TGI: 78.7 µg/mL
[1]
  GI50: 40.9 µg/mL
  TGI: > 150 µg/mL
[10]
  GI50: 48.4 µg/mL
  TGI: > 150 µg/mL
[2]
  GI50: 29.9 µg/mL
  TGI: 91.9 µg/mL
[3]
  GI50: 46.4 µg/mL
  TGI: > 150 µg/mL
[4]
  GI50: 53.4 µg/mL
  TGI: > 150 µg/mL
[5]
  GI50: 80.6 µg/mL
  TGI: > 150 µg/mL
[6]
  GI50: 33.8 µg/mL
  TGI: 107 µg/mL
[7]
  GI50: 25.6 µg/mL
  TGI: 68.2 µg/mL

## CC(C)=CC/C=C(/C)[C@H]1CC[C@]2(C)[C@@H]1CC[C@@H]1[C@@]3(C)CCCNC(C)(C)[C@@H]3CC[C@]12C
[8]
  GI50: 6.06 µM
  TGI: 22.5 µM
[9]
  GI50: 1.97 µM
  TGI: 3.56 µM
[1]
  GI50: 5.5 µM
  TGI: 20.1 µM
[10]
  GI50: 10.1 µM
  TGI: 23.4 µM
[3]
  GI50: 2.38 µM
  TGI: 6.29 µM
[4]
  GI50: 2.3 µM
  TGI: 5.45 µM
[5]
  GI50: 2.35 µM
  TGI: 5.67 µM
[6]
  GI50: 2.11 µM
  TGI: 4.4 µM
[7]
  GI50: 1.89 µM
  TGI: 3.56 µM

## O=c1c2sc(=S)n(-c3ccc(F)cc3)c2ncn1Cc1ccc(F)cc1F
[8]
  GI50: > 100 µM
  TGI: > 100 µM
[9]
  GI50: > 100 µM
  TGI: > 100 µM
[1]
  GI50: > 100 µM
  TGI: > 100 µM
[10]
  GI50: > 100 µM
  TGI: > 100 µM
[2]
  GI50: 81.8 µM
  TGI: > 100 µM
[3]
  GI50: 80.5 µM
  TGI: > 100 µM
[4]
  GI50: > 100 µM
  TGI: > 100 µM
[5]
  GI50: > 100 µM
  TGI: > 100 µM
[6]
  GI50: > 100 µM
  TGI: > 100 µM
[7]
  GI50: > 100 µM
  TGI: > 100 µM

## COc1ccc(C(C)=O)cc1N1C(=O)C2C(C1=O)C1(c3ccccc3)C(=O)C2(c2ccccc2)C(c2ccc(C)cc2)=C1c1ccc(C)cc1 (centres undefined)
[8]
  GI50: > 100 µM
  TGI: > 100 µM
[9]
  GI50: > 100 µM
  TGI: > 100 µM
[1]
  GI50: > 100 µM
  TGI: > 100 µM
[10]
  GI50: > 100 µM
  TGI: > 100 µM
[2]
  GI50: > 100 µM
  TGI: > 100 µM
[3]
  GI50: > 100 µM
  TGI: > 100 µM
[4]
  GI50: > 100 µM
  TGI: > 100 µM
[5]
  GI50: > 100 µM
  TGI: > 100 µM
[6]
  GI50: > 100 µM
  TGI: > 100 µM
[7]
  GI50: > 100 µM
  TGI: > 100 µM

## COc1cccc(/C=C/c2cc(OC)c(OC)c(OC)c2)c1
[8]
  TGI: > 100 µM
[9]
  TGI: > 100 µM
[1]
  TGI: > 100 µM
[10]
  TGI: > 100 µM
[2]
  TGI: > 100 µM
[3]
  TGI: > 100 µM
[4]
  TGI: > 100 µM
[5]
  TGI: > 100 µM
[6]
  TGI: > 100 µM
[7]
  TGI: > 100 µM

## COC(=O)c1cc2c(s1)C(=O)c1ccccc1-2
[8]
  TGI: > 100 µM
[9]
  TGI: > 100 µM
[1]
  TGI: > 100 µM
[10]
  TGI: > 100 µM
[2]
  TGI: > 100 µM
[3]
  TGI: > 100 µM
[4]
  TGI: > 100 µM
[5]
  TGI: > 100 µM
[6]
  TGI: > 100 µM
[7]
  TGI: > 100 µM

## S=C(Nc1ccccc1)N(/N=C/C=C/c1ccccc1)c1nnc(-c2ccccc2)c(-c2ccccc2)n1
[8]
  TGI: > 100 µM
[9]
  TGI: > 100 µM
[1]
  TGI: > 100 µM
[10]
  TGI: > 100 µM
[3]
  TGI: > 100 µM
[4]
  TGI: > 100 µM
[5]
  TGI: > 100 µM
[6]
  TGI: > 100 µM
[7]
  TGI: > 100 µM

## Cn1c2ccccc2c2c3c(c4c5cc(Br)ccc5n(C)c4c21)C(=O)N(O)C3=O
[8]
  GI50: > 48.2 µM
  TGI: > 100 µM
[9]
  GI50: 1.01 µM
  TGI: > 100 µM
[1]
  GI50: 0.308 µM
  TGI: > 100 µM
[3]
  GI50: 0.289 µM
  TGI: 1.4 µM
[5]
  GI50: 0.584 µM
  TGI: > 100 µM
[6]
  GI50: 0.048 µM
  TGI: 1.08 µM
[7]
  GI50: 0.199 µM
  TGI: > 100 µM

## NC(=Nc1c([N+](=O)[O-])cnc2ccccc12)N1CCOCC1
[8]
  TGI: > 100 µM
[1]
  TGI: > 100 µM
[10]
  TGI: > 100 µM
[2]
  TGI: > 100 µM
[3]
  TGI: > 100 µM
[4]
  TGI: > 100 µM
[5]
  TGI: > 100 µM
[6]
  TGI: > 100 µM
[7]
  TGI: > 100 µM

## COc1ccc2c(c1)CCCC(Br)C2=O (centres undefined)
[8]
  TGI: 4.36 µM
[9]
  TGI: > 100 µM
[1]
  TGI: 8.88 µM
[10]
  TGI: 4.71 µM
[3]
  TGI: > 30 µM
[4]
  TGI: 9.13 µM
[5]
  TGI: 23.3 µM
[6]
  TGI: 10.5 µM
[7]
  TGI: 12.7 µM

## NC(=O)NC1C(c2ccccc2)=C1c1ccccc1
[9]
  TGI: 35.8 µM
[1]
  TGI: 23.4 µM
[10]
  TGI: 28.8 µM
[2]
  TGI: 38.7 µM
[3]
  TGI: 73.8 µM
[4]
  TGI: 35.4 µM
[5]
  TGI: 33.3 µM
[6]
  TGI: 36 µM
[7]
  TGI: 32.4 µM
